Patent US20260109707A1, “HETEROBIFUNCTIONAL COMPOUNDS AND METHODS OF TREATING DISEASE” (Halda Therapeutics OpCo. Inc., priority 2022, published 2026)

Columns and labels:
[1] = tested on: T-Rex 293 cell line SC3 cells lacking increased expression of androgen receptor protein; experiment: Cellular growth inhibition assay, T-Rex 293 SC3 cells without doxycycline (CellTiter-Glo, 72 hours); assay type: cell-based; conditions: 72 h, T-Rex 293 cell line SC3 cells not exposed to doxycycline (lacking increased androgen receptor expression)
Procedure, shortened: (§1)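 Doxycycline (10 ng/mL) was either included or omitted to toggle wild-type androgen receptor expression in SC3 cells, a T-Rex 293 clone, grown in stripped-serum, phenol red-free medium. After 72 hours with compound, viable cells were quantified by CellTiter-Glo 2.0.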

[2] = tested on: T-Rex 293 cell line SC3 cells having increased expression of androgen receptor protein due to exposure to doxycycline; experiment: Cellular growth inhibition assay, T-Rex 293 SC3 cells with doxycycline (CellTiter-Glo, 72 hours); assay type: cell-based; conditions: 72 h, T-Rex 293 SC3 cells with increased androgen receptor expression due to doxycycline (10 ng/mL)
Procedure, shortened: as §1

VCaP cells = experiment: Cellular growth inhibition assay for VCaP cells (CellTiter-Glo, 72 hours); assay type: cell-based, human; conditions: Homo sapiens, VCaP, 72 h
Procedure, shortened: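 Luminescent viability signal after 72 h of compound exposure gave GI50 values by four-parameter nonlinear regression. Compounds were added in 0.5% DMSO to cells plated 24 h earlier at 5000/well in DMEM containing 10% FBS.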

T47D cells = experiment: Cellular growth inhibition assay for T47D cells (CellTiter-Glo, 72 hours); assay type: cell-based, human; conditions: Homo sapiens, T47D, 72 h, 72 hours treatment
Procedure, shortened: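 Growth inhibition as GI50, fitted with four parameters to CellTiter-Glo luminescence after 72 h of compound exposure (0.5% DMSO). Cells were T47D, grown in insulin-supplemented (0.2 units/mL) DMEM with 10% FBS and treated one day post-seeding.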

GI50 (VCaP cells) [nM] | GI50 (T47D cells) [nM] | Structure (SMILES) | GI50 [1] [nM] | GI50 [2] [nM]
< 500 | < 500 | Cc1sc2c(c1C)C(c1ccc(O[C@H]3C[C@@H](N(C(C)C)C4CCN(c5ccc(C(=O)N[C@H]6CC[C@H](Oc7ccc(C#N)c(Cl)c7)CC6)nn5)CC4)C3)cc1)=N[C@@H](Cc1ncco1)c1nnc(C)n1-2 [I-246] | < 500 | < 500
< 500 | < 500 | Cc1sc2c(c1C)C(c1ccc(OC3CC4(CCCN(c5ccc(C(=O)N[C@H]6CC[C@H](Oc7ccc(C#N)c(Cl)c7)CC6)nn5)C4)C3)nc1)=N[C@@H](Cc1ncco1)c1nnc(C)n1-2 (stereo partly shown) [I-247] | < 500 | < 500
< 500 | < 500 | Cc1sc2c(c1C)C(c1ccc(NCC(=O)N3CCC(c4ccc(C(=O)N[C@H]5CC[C@H](Oc6ccc(C#N)c(Cl)c6)CC5)nn4)CC3)cc1)=N[C@H](Cc1ncco1)c1nnc(C)n1-2 [I-248] | 500 to 1500 | < 500
< 500 | < 500 | Cc1sc2c(c1C)C(c1ccc(CCC(=O)N3CCN(c4ccc(C(=O)N[C@H]5CC[C@H](Oc6ccc(C#N)c(Cl)c6)CC5)nn4)CC3)cc1)=N[C@@H](Cc1ncco1)c1nnc(C)n1-2 [I-249] | 500 to 1500 | < 500
> 3000 | 500 to 1500 | Cc1sc2c(c1C)C(c1ccc(N3CCN(C(=O)c4ccc(C(=O)N[C@H]5CC[C@H](Oc6ccc(C#N)c(Cl)c6)CC5)nn4)CC3)cc1)=N[C@@H](Cc1ncco1)c1nnc(C)n1-2 [I-250] | > 3000 | < 500
< 500 | < 500 | Cc1sc2c(c1C)C(c1ccc(N3CCN(C(=O)c4ccc(C(=O)N[C@H]5CC[C@H](Oc6ccc(C#N)c(Cl)c6)CC5)nn4)CC3)cc1)=N[C@H](Cc1ncco1)c1nnc(C)n1-2 [I-251] | 500 to 1500 | < 500
< 500 | < 500 | Cc1sc2c(c1C)C(c1ccc(C[C@@H]3CCCN(c4ccc(C(=O)N[C@H]5CC[C@H](Oc6ccc(C#N)c(Cl)c6)CC5)nn4)C3)cc1)=N[C@@H](Cc1ncco1)c1nnc(C)n1-2 [I-252] | < 500 | < 500
< 500 | < 500 | Cc1sc2c(c1C)C(c1ccc(C[C@H]3CCCN(c4ccc(C(=O)N[C@H]5CC[C@H](Oc6ccc(C#N)c(Cl)c6)CC5)nn4)C3)cc1)=N[C@@H](Cc1ncco1)c1nnc(C)n1-2 [I-253] | < 500 | < 500
< 500 | < 500 | Cc1sc2c(c1C)C(c1ccc(CC[C@H]3CCCN(c4ccc(C(=O)N[C@H]5CC[C@H](Oc6ccc(C#N)c(Cl)c6)CC5)nn4)C3)cc1)=N[C@@H](Cc1ncco1)c1nnc(C)n1-2 [I-254] | < 500 | < 500
< 500 | 500 to 1500 | Cc1sc2c(c1C)C(c1ccc(CC[C@@H]3CCCN(c4ccc(C(=O)N[C@H]5CC[C@H](Oc6ccc(C#N)c(Cl)c6)CC5)nn4)C3)cc1)=N[C@@H](Cc1ncco1)c1nnc(C)n1-2 [I-255] | < 500 | < 500
< 500 | < 500 | Cc1sc2c(c1C)C(c1ccc(OCC[C@@H]3CCCN(c4ccc(C(=O)N[C@H]5CC[C@H](Oc6ccc(C#N)c(Cl)c6)CC5)nn4)C3)cc1)=N[C@@H](Cc1ncco1)c1nnc(C)n1-2 [I-256] | < 500 | < 500
< 500 | < 500 | Cc1sc2c(c1C)C(c1ccc(OCC[C@H]3CCCN(c4ccc(C(=O)N[C@H]5CC[C@H](Oc6ccc(C#N)c(Cl)c6)CC5)nn4)C3)cc1)=N[C@@H](Cc1ncco1)c1nnc(C)n1-2 [I-257] | < 500 | < 500
< 500 | < 500 | Cc1sc2c(c1C)C(c1ccc(C[C@H]3CCC4CN(c5ccc(C(=O)N[C@H]6CC[C@H](Oc7ccc(C#N)c(Cl)c7)CC6)nn5)CCN4C3)cc1)=N[C@H](Cc1ncco1)c1nnc(C)n1-2 (stereo partly shown) [I-260] | < 500 | < 500
